Converted amounts (≈) assume the structure as drawn. The source made the active and inactive calls. No rule for the calls is given here.
Assays:
[1] = system: Staphylococcus aureus; assay: Antimicrobial activity against Staphylococcus aureus infected in iv dosed mouse bacteremia survival model; assay type: functional
[2] = system: Staphylococcus aureus; assay: Antimicrobial activity against Staphylococcus aureus infected in orally dosed mouse bacteremia survival model; assay type: functional; conditions: po
[3] = system: Staphylococcus aureus; assay: Antimicrobial activity against Staphylococcus aureus Smith by micro broth dilution or agar based method; assay type: functional
[4] = system: Streptococcus pneumoniae; assay: Antimicrobial activity against Streptococcus pneumoniae IID553 by micro broth dilution or agar based method; assay type: functional
[5] = system: Enterococcus faecium; assay: Antimicrobial activity against vancomycin-resistant Enterococcus faecium VanA by micro broth dilution or agar based method; assay type: functional
[6] = system: Escherichia coli; assay: Antimicrobial activity against Escherichia coli ATCC 25922 by micro broth dilution or agar based method; assay type: functional
[7] = system: Acinetobacter baumannii; assay: Antimicrobial activity against Acinetobacter baumannii IID876 by micro broth dilution or agar based method; assay type: functional
[8] = system: Pseudomonas aeruginosa; assay: Antimicrobial activity against Pseudomonas aeruginosa PAO1 by micro broth dilution or agar based method; assay type: functional
[9] = system: Staphylococcus aureus; assay: Antimicrobial activity against methicillin-resistant Staphylococcus aureus OIT971 by micro broth dilution or agar based method; assay type: functional, organism-based
[10] = system: Staphylococcus aureus; assay: Resistance index, ratio of MIC for quinolone-resistant Staphylococcus aureus MS5935 to MIC for quinolone-[…]; assay type: functional
[11] = system: Staphylococcus aureus; assay: Antimicrobial activity against quinolone-resistant Staphylococcus aureus MS5935; assay type: functional
[12] = system: Staphylococcus aureus; assay: Antimicrobial activity against quinolone-sensitive Staphylococcus aureus MS5935
[13] = system: Mus musculus; assay: Dose normalized AUC in C57BL/6 mouse at 2 mg/kg, iv or 5 mg/kg, po; assay type: ADME, organism-based; conditions: in vivo
[14] = Plasma clearance in C57BL/6 mouse at 2 mg/kg, iv or 5 mg/kg, po; assay type: ADME, organism-based
[15] = Volume of distribution at steady state in C57BL/6 mouse at 2 mg/kg, iv or 5 mg/kg, po; assay type: ADME, organism-based; conditions: in vivo, read-out: Vdss
[16] = Half life in C57BL/6 mouse at 2 mg/kg, iv or 5 mg/kg, po; assay type: ADME, organism-based; conditions: in vivo
[17] = Oral bioavailability in C57BL/6 mouse at 5 mg/kg; assay type: ADME, organism-based; conditions: in vivo
[18] = system: Rattus norvegicus; assay: Dose normalized AUC in Sprague-Dawley rat at 2 mg/kg, iv or 5 mg/kg, po; assay type: ADME, organism-based; conditions: in vivo
[19] = Plasma clearance in Sprague-Dawley rat at 2 mg/kg, iv or 5 mg/kg, po; assay type: ADME, organism-based
[20] = Volume of distribution at steady state in Sprague-Dawley rat at 2 mg/kg, iv or 5 mg/kg, po; assay type: ADME, organism-based; conditions: in vivo, read-out: Vdss
[21] = Half life in Sprague-Dawley rat at 2 mg/kg, iv or 5 mg/kg, po; assay type: ADME, organism-based; conditions: in vivo
[22] = Oral bioavailability in Sprague-Dawley rat at 5 mg/kg; assay type: ADME, organism-based; conditions: in vivo

Row | Compound | ED50 [1] | ED50 [2] | MIC [3] | MIC [4] | MIC [5] | MIC [6] | MIC [7] | MIC [8] | growth inhibition (GI) [9] | Ratio [10] | also measured
1 | Cl.O=C1COc2ccc(CNC34CCC(CCc5c(F)cnc6ccc(OCCO)nc56)(CC3)OC4)nc2N1 | 13 mg/kg | > 50 mg/kg |  |  |  |  |  |  |  |  | 
2 | COc1ccc2ncc(F)c(CCC34CCC(NCc5ccc6c(n5)NC(=O)CO6)(CC3)CO4)c2n1.Cl | 5.5 mg/kg | 17 mg/kg |  |  |  |  |  |  |  |  | 
3 | CN(C)C(=O)COc1ccc2ncc(F)c(CCC34CCC(NCc5ccc6c(n5)NC(=O)CO6)(CC3)CO4)c2n1 |  |  | 1 µg/mL (≈ 1.77 µM) | 4 µg/mL (≈ 7.08 µM) | 16 µg/mL (≈ 28.3 µM) | 16 µg/mL (≈ 28.3 µM) | 16 µg/mL (≈ 28.3 µM) | 16 µg/mL (≈ 28.3 µM) | Active | <4 | 
4 | C=CCOc1ccc2ncc(F)c(CCC34CCC(NCc5ccc6c(n5)NC(=O)CO6)(CC3)CO4)c2n1 |  |  | 0.063 µg/mL (≈ 0.121 µM) | 1 µg/mL (≈ 1.92 µM) | 8 µg/mL (≈ 15.4 µM) | 8 µg/mL (≈ 15.4 µM) | 2 µg/mL (≈ 3.85 µM) | 16 µg/mL (≈ 30.8 µM) | Active | <4 | 
5 | CNC(=O)COc1ccc2ncc(F)c(CCC34CCC(NCc5ccc6c(n5)NC(=O)CO6)(CC3)CO4)c2n1 |  |  | 0.125 µg/mL (≈ 0.227 µM) | 0.5 µg/mL (≈ 0.908 µM) | 4 µg/mL (≈ 7.26 µM) | 16 µg/mL (≈ 29.1 µM) | 4 µg/mL (≈ 7.26 µM) | 16 µg/mL (≈ 29.1 µM) | Active | <4 | 
6 | Cl.O=C1COc2ccc(CNC34CCC(CCc5c(F)cnc6ccc(OCCCCCO)nc56)(CC3)OC4)nc2N1 | 21 mg/kg | 43 mg/kg |  |  |  |  |  |  |  |  | 
7 | COCCOc1ccc2ncc(F)c(CCC34CCC(NCc5ccc6c(n5)NC(=O)CO6)(CC3)CO4)c2n1.Cl | 7.2 mg/kg |  |  |  |  |  |  |  |  |  | 
8 | NCCCCCOc1ccc2ncc(F)c(CCC34CCC(NCc5ccc6c(n5)NC(=O)CO6)(CC3)CO4)c2n1 |  |  | 0.5 µg/mL (≈ 0.885 µM) | 1 µg/mL (≈ 1.77 µM) | 8 µg/mL (≈ 14.2 µM) | 4 µg/mL (≈ 7.08 µM) | 4 µg/mL (≈ 7.08 µM) | 16 µg/mL (≈ 28.3 µM) | Active | <4 | 
9 | C[C@H]1COc2c(N3CCN(C)CC3)c(F)cc3c(=O)c(C(=O)O)cn1c23.C[C@H]1COc2c(N3CCN(C)CC3)c(F)cc3c(=O)c(C(=O)O)cn1c23.O [LEVOFLOXACIN] |  |  |  |  |  |  |  |  |  | >64 | MIC [11]: > 16 µg/mL; MIC [12]: 0.25 µg/mL
10 | O=C1COc2ccc(CNC34CCC(CCc5c(F)cnc6ccc(OC[C@H]7C[C@H]7C(=O)O)nc56)(CC3)OC4)nc2N1 (relative stereo) |  |  | 0.125 µg/mL (≈ 0.216 µM) | 0.125 µg/mL (≈ 0.216 µM) | 2 µg/mL (≈ 3.46 µM) | 32 µg/mL (≈ 55.4 µM) | 32 µg/mL (≈ 55.4 µM) | 32 µg/mL (≈ 55.4 µM) | Active |  | 
11 | N[C@H]1COC[C@@H]1Oc1ccc2ncc(F)c(CCC34CCC(NCc5ccc6c(n5)NC(=O)CO6)(CC3)CO4)c2n1 |  |  | 0.25 µg/mL (≈ 0.443 µM) | 4 µg/mL (≈ 7.08 µM) | 16 µg/mL (≈ 28.3 µM) | 8 µg/mL (≈ 14.2 µM) | 2 µg/mL (≈ 3.54 µM) | 32 µg/mL (≈ 56.7 µM) | Active |  | 
12 | O=C1COc2ccc(CNC34CCC(CCc5c(F)cnc6ccc(OCCOCCO)nc56)(CC3)OC4)nc2N1 |  |  | 0.25 µg/mL (≈ 0.44 µM) | 4 µg/mL (≈ 7.05 µM) | 16 µg/mL (≈ 28.2 µM) | 32 µg/mL (≈ 56.4 µM) | 16 µg/mL (≈ 28.2 µM) | 32 µg/mL (≈ 56.4 µM) | Active | <4 | 
13 | NCCCCOc1ccc2ncc(F)c(CCC34CCC(NCc5ccc6c(n5)NC(=O)CO6)(CC3)CO4)c2n1 |  |  | 0.5 µg/mL (≈ 0.908 µM) | 1 µg/mL (≈ 1.82 µM) | 8 µg/mL (≈ 14.5 µM) | 4 µg/mL (≈ 7.26 µM) | 8 µg/mL (≈ 14.5 µM) | 16 µg/mL (≈ 29.1 µM) | Active |  | 
14 | Cl.O=C1COc2ccc(CNC34CCC([C@@H](O)Cc5c(F)cnc6ccc(OCCCO)nc56)(CC3)OC4)nc2N1 | 5.5 mg/kg | > 50 mg/kg |  |  |  |  |  |  |  |  | 
15 | Cl.O=C1COc2ccc(CNC34CCC(CCc5c(F)cnc6ccc(OCCCO)nc56)(CC3)OC4)nc2N1 | 5.9 mg/kg | 15 mg/kg |  |  |  |  |  |  |  |  | AUC/dose [13]: 1.6 µM·h/mg/kg; clearance [14]: 38.7 mL/min/kg; Vd [15]: 1.46 L/kg; half-life [16]: 1.5 h; bioavailability [17]: 16%; AUC/dose [18]: 1.9 µM·h/mg/kg; clearance [19]: 33.2 mL/min/kg; Vd [20]: 0.84 L/kg; half-life [21]: 0.58 h; bioavailability [22]: 49%
16 | Cl.NCCCOc1ccc2ncc(F)c(CCC34CCC(NCc5ccc6c(n5)NC(=O)CO6)(CC3)CO4)c2n1 | 15 mg/kg | > 50 mg/kg |  |  |  |  |  |  |  |  | 
17 | CCOc1ccc2ncc(F)c(CCC34CCC(NCc5ccc6c(n5)NC(=O)CO6)(CC3)CO4)c2n1 |  |  | 0.031 µg/mL (≈ 0.0611 µM) | 0.5 µg/mL (≈ 0.985 µM) | 2 µg/mL (≈ 3.94 µM) | 4 µg/mL (≈ 7.88 µM) | 2 µg/mL (≈ 3.94 µM) | 8 µg/mL (≈ 15.8 µM) | Active |  | 
18 | CCOC(=O)CCCOc1ccc2ncc(F)c(CCC34CCC(NCc5ccc6c(n5)NC(=O)CO6)(CC3)CO4)c2n1 |  |  | 0.031 µg/mL (≈ 0.0522 µM) | 0.125 µg/mL (≈ 0.211 µM) | 2 µg/mL (≈ 3.37 µM) | 8 µg/mL (≈ 13.5 µM) | 2 µg/mL (≈ 3.37 µM) | 8 µg/mL (≈ 13.5 µM) | Active |  | 
19 | COc1ccc2ncc(F)c(C[C@H](O)C34CCC(NCc5ccc6c(n5)NC(=O)CO6)(CC3)CO4)c2n1.Cl | 2.5 mg/kg | 2.2 mg/kg |  |  |  |  |  |  |  |  | 
20 | O=C1COc2ccc(CNC34CCC(CCc5c(F)cnc6ccc(OCCc7cc(=O)c(O)c[nH]7)nc56)(CC3)OC4)nc2N1 |  |  | 16 µg/mL (≈ 25.9 µM) | 8 µg/mL (≈ 13 µM) | 32 µg/mL (≈ 51.9 µM) | 32 µg/mL (≈ 51.9 µM) | 32 µg/mL (≈ 51.9 µM) | 32 µg/mL (≈ 51.9 µM) | Active |  | 
21 | CC(C)Oc1ccc2ncc(F)c(CCC34CCC(NCc5ccc6c(n5)NC(=O)CO6)(CC3)CO4)c2n1 |  |  | 0.25 µg/mL (≈ 0.479 µM) | 2 µg/mL (≈ 3.83 µM) | 8 µg/mL (≈ 15.3 µM) | 16 µg/mL (≈ 30.7 µM) | 8 µg/mL (≈ 15.3 µM) | 32 µg/mL (≈ 61.4 µM) | Active | <4 | 
22 | NCCOc1ccc2ncc(F)c(CCC34CCC(NCc5ccc6c(n5)NC(=O)CO6)(CC3)CO4)c2n1 |  |  | 0.25 µg/mL (≈ 0.478 µM) | 0.5 µg/mL (≈ 0.957 µM) | 4 µg/mL (≈ 7.65 µM) | 1 µg/mL (≈ 1.91 µM) | 1 µg/mL (≈ 1.91 µM) | 4 µg/mL (≈ 7.65 µM) | Active |  | 
23 | CC(C)COc1ccc2ncc(F)c(CCC34CCC(NCc5ccc6c(n5)NC(=O)CO6)(CC3)CO4)c2n1 |  |  | 0.063 µg/mL (≈ 0.118 µM) | 0.25 µg/mL (≈ 0.467 µM) | 4 µg/mL (≈ 7.47 µM) | 16 µg/mL (≈ 29.9 µM) | 2 µg/mL (≈ 3.73 µM) | 16 µg/mL (≈ 29.9 µM) | Active | <4 | 

From ChEMBL document CHEMBL3603744, “Structure activity relationship of C-2 ether substituted 1,5-naphthyridine analogs of oxabicyclooctane-linked novel bacterial topoisomerase inhibitors as broad-spectrum antibacterial agents (Part-5)” (Bioorg Med Chem Lett, 2015)
